Article PMC6376031, “Enhanced anti-tumor activity of the Multi-Leu peptide PACE4 inhibitor transformed into an albumin-bound tumor-targeting prodrug” (Scientific Reports, 2019)
Where a SMILES comes first, the peptide text is derived from it.

Legend:
DU145 cells [1] = experiment: LDH release acute cytotoxicity assay; format: cell-based; details: for LDH release DU145: 4 h incubation, selected concentrations
Procedure: (§1) The inhibitory constant (Ki) was calculated from the IC50 values using the equation of Cheng and Prusoff. Data are the mean ± SD of three independent experiments. The concentration of peptides that inhibited cell growth by 50% (IC50) was determined by MTT cell survival assays in DU145 and LNCaP cell lines. Data represent the mean ± SEM of three independent experiments. Acute cytotoxicity of the compounds at the selected concentrations was measured by lactate dehydrogenase (LDH) assay after 4 h of incubation with DU145 cells. […] Previously published compound: [a] ref.[12]. ML inhibitor was used as control and was re-assayed in presented experiments.
(§2) DU145 and LNCaP cells were maintained at low passages (below 30) and cultured in RPMI 1640 (Wisent Bioproducts, QC) with 5 and 10% fetal bovine serum, respectively. For MTT proliferation assays 3500 LNCaP (on poly-L-lysine coated wells) or 1500 DU145 cells were seeded in 96-well plates, and after 24 h, the cells were treated with various concentrations of inhibitors (from 300 to 1 μM). Next, the cells were incubated for 72 h with peptides prior to addition of MTT reagent (Sigma–Aldrich, Canada) at a final concentration of 1 mg/mL. Formazan salt was solubilized with 50 μL DMSO and the metabolic activity was normalized relatively to vehicle-treated cells (sterile bi-distilled water). IC50 values were determined using Prism 5.0 (GraphPad Software, USA), as previously described. For LDH assay, the LDH Cytotoxicity Detection Kit (Promega, USA) was used to quantify the release of lactate dehydrogenase following membrane disruption. As described in our previous work[15], DU145 cells were seeded at a density of 3000 cells/well and allowed to incubate for 24 h. Then, the media was subsequently replaced and cells were incubated with compounds at the selected concentration. Cells treated with 1% SDS were used as a control for maximal LDH release and further relative quantification.

recombinant human PACE4 = molecular target: T1, recombinant human PACE4 (Homo sapiens, UniProt P29122); experiment: Enzyme kinetic inhibition of recombinant hPACE4; format: biochemical; details: calculated from IC50 by Cheng and Prusoff, mean ± SD of three experiments
T1 construct: made in house
T1 sequence (P29122 150-969): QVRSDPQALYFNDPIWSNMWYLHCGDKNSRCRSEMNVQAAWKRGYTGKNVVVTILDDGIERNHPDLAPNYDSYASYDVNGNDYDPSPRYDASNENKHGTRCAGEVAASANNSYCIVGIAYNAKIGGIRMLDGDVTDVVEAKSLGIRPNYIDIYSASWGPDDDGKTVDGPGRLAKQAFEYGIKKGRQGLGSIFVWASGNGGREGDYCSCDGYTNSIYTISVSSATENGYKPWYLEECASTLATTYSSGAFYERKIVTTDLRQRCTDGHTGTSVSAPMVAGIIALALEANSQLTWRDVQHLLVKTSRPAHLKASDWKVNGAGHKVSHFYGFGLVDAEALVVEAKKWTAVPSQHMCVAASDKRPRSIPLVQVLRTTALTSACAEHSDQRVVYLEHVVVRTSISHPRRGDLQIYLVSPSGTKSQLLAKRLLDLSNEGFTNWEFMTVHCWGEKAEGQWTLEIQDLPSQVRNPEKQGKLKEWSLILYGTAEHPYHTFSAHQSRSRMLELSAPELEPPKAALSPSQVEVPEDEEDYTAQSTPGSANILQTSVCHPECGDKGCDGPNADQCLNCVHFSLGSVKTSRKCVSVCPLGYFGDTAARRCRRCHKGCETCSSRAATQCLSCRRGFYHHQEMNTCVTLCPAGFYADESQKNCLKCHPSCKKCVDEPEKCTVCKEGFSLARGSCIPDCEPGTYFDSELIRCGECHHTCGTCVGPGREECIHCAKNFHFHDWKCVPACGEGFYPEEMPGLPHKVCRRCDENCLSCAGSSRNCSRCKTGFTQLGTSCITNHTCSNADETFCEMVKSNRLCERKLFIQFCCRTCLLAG
Procedure: as §1
Enzyme kinetic measurements were performed with recombinant hPACE4 as described previously. Enzyme and substrate concentrations used in the present study are presented in Supplementary Table S2.

[2] = molecular target: T2, mouse serum albumin (MSA) (Mus musculus, UniProt P07724); experiment: MSA conjugation assay; format: binding; details: PBS pH 7.4, 37 °C; RP-HPLC and MALDI-TOF
T2 construct: purchased Equitech-Bio; Inc., USA
T2 sequence (P07724 25-608): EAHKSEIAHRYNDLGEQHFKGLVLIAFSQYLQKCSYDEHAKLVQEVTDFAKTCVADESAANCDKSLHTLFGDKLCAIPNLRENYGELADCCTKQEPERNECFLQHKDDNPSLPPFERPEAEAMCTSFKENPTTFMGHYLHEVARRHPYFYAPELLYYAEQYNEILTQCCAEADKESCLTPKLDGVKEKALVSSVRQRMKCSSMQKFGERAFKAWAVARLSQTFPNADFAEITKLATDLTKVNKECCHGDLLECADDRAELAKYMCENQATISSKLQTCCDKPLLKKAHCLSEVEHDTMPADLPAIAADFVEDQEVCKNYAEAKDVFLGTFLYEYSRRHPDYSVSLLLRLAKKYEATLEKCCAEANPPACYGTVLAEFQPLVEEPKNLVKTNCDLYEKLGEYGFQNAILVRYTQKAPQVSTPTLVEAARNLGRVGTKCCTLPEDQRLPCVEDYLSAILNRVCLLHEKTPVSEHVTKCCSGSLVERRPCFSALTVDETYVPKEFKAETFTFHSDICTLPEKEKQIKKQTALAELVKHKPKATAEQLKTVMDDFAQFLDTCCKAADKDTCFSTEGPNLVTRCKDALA
From the text: RP-HPLC and MALDI-TOF analysis were used to confirm completion of the reaction.

[3] = design: method as in PMID 25682874; details: cited from earlier work
in vitro = in vitro ADME; details: mouse, plasma
From the text: Figure 1S. Plasma ex vivo stability profile of the ML and C23 inhibitor determined by Ultra Performance Liquid Chromatography (UPLC).

DU145 cells [4] = details: 72 h
Procedure: as §1, §2

LNCaP cells = details: 72 h
Procedure: as §1, §2

human PSA (hPSA) = molecular target: T3, human PSA (hPSA) (Homo sapiens, UniProt P07288); experiment: hPSA cleavage of prodrugs; format: biochemical; details: extended incubation time up to 24 h; RP-HPLC
T3 construct: enzymatically active hPSA extracted from seminal fluid (Millipore, USA); purchased Millipore, USA; host or cells: human seminal fluid
T3 sequence (P07288 25-261): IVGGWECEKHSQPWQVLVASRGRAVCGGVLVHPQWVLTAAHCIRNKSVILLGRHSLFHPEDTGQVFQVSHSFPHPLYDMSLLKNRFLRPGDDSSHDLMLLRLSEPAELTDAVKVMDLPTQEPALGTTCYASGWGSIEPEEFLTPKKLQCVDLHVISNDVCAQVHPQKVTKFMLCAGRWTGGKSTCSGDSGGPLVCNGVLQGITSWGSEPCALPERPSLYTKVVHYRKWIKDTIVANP
Procedure: To determine PSA cleavage efficiency, peptide (125 µM final concentration; approximately 20 µg) were incubated with a final concentration of 20 µg/mL of enzymatically active hPSA extracted from seminal fluid (Millipore, USA) in 50 mM Tris buffer pH 7.4. Samples were analyzed by RP-HPLC (using 35 µL of the reaction solution) by comparing the resulting cleavage product over a standard curve generated using a synthetic cleaved peptide (peptides 1–4). The number of nmol of a cleaved peptide produced over time was then used to calculate the specific activity in pmol product/min/100 pmol PSA to compare the different substrate peptide between each other.

[5] = 4 h incubation with DU145 cells at 100 μM

Compound: CC(C)C[C@H](NC(=O)COCCOCCNC(=O)[C@H](CC(C)C)NC(=O)[C@@H](N)CO)C(=O)N[C@@H](CC(C)C)C(=O)N[C@@H](CC(C)C)C(=O)N[C@@H](CC(C)C)C(=O)N[C@@H](CCCNC(=N)N)C(=O)N[C@H](C(=O)N[C@@H](CCCCN)C(=O)N[C@@H](CCCNC(=N)N)C(N)=O)C(C)C [Peptide 4] (HELM PEPTIDE1{S.L.[O=C(COCCOCCN[*:1])[*:2]].L.L.L.L.R.V.K.R.[am]}$$$$V2.0)
- LDH release relative to the untreated cells (DU145 cells [1]; [5]): < 5%
- LDH release DU145 (DU145 cells [1]): < 5%
- Ki (recombinant human PACE4): 62 ± 3 nM

Compound: EMC-RSSYYSLLLLLRVKR-NH2 ({EMC}-RSSYYSLLLLLRVKR-NH2) [Ligand 1]
- time to full conjugation to MSA [2]: 1 h

Compound: EMC-RSSYYSL[4-Apaa]LLLLRVKR-NH2 [Ligand 2]
- time to full conjugation to MSA [2]: 1 h

Compound: CC(=O)N[C@H](CC(C)C)C(=O)N[C@@H](CC(C)C)C(=O)N[C@@H](CC(C)C)C(=O)N[C@@H](CC(C)C)C(=O)N[C@@H](CCCNC(=N)N)C(=O)N[C@H](C(=O)N[C@@H](CCCCN)C(=O)NCc1ccc(C(=N)N)cc1)C(C)C [C23, Ac-[DLeu]LLLRVK-amidinobenzylamide] (HELM PEPTIDE1{[ac].[dL].L.L.L.R.V.K.[N=C(N)c1ccc(CN[*:1])cc1]}$$$$V2.0)
- in vivo half-life (t1/2) [3]: 9 ± 3 min
- time post-injection after which rapidly eliminated ([3]; radiolabeled version): 20 min
- half-life (in vitro): 104 ± 3.6 min

Compound: CC(C)C[C@H](NC(=O)Cc1ccc(NC(=O)[C@H](CC(C)C)NC(=O)[C@@H](N)CO)cc1)C(=O)N[C@@H](CC(C)C)C(=O)N[C@@H](CC(C)C)C(=O)N[C@@H](CC(C)C)C(=O)N[C@@H](CCCNC(=N)N)C(=O)N[C@H](C(=O)N[C@@H](CCCCN)C(=O)N[C@@H](CCCNC(=N)N)C(N)=O)C(C)C [Peptide 2] (HELM PEPTIDE1{S.L.[O=C(Cc1ccc(N[*:1])cc1)[*:2]].L.L.L.L.R.V.K.R.[am]}$$$$V2.0)
- LDH release relative to the untreated cells (DU145 cells [1]; 4 h incubation with DU145 cells at the IC50 concentration): < 5%
- LDH release DU145 (DU145 cells [1]): < 5%
- IC50 (DU145 cells [4]): 19 ± 7 µM
- IC50 (LNCaP cells): 50 ± 10 µM
- Ki (recombinant human PACE4): 68 ± 10 nM

Compound: Ac-LLLLRVKR-NH2 [ML, reference compound]
- LDH release DU145 (DU145 cells [1]): < 5%
- IC50 (DU145 cells [4]): 90 ± 2 µM
- IC50 (LNCaP cells): 130 ± 10 µM
- half-life (in vitro): 7.8 ± 2.3 min

Compound: MSA-EMC-RSSYYSLLLLLRVKR-NH2 [prodrug 1]
- release of the ML derivative by hPSA (human PSA (hPSA)): no release product was detected

Compound: CC(C)C[C@H](NC(=O)CCCNC(=O)[C@H](CC(C)C)NC(=O)[C@@H](N)CO)C(=O)N[C@@H](CC(C)C)C(=O)N[C@@H](CC(C)C)C(=O)N[C@@H](CC(C)C)C(=O)N[C@@H](CCCNC(=N)N)C(=O)N[C@H](C(=O)N[C@@H](CCCCN)C(=O)N[C@@H](CCCNC(=N)N)C(N)=O)C(C)C [Peptide 3] (HELM PEPTIDE1{S.L.[O=C(CCCN[*:1])[*:2]].L.L.L.L.R.V.K.R.[am]}$$$$V2.0)
- LDH release relative to the untreated cells (DU145 cells [1]; [5]): < 5%
- LDH release DU145 (DU145 cells [1]): < 5%
- Ki (recombinant human PACE4): 56 ± 4 nM
